Measurements taken from US8580843B2, “Use of diindolylmethane (DIM) compounds and derivatives as neuroprotective agents” (Colorado State University Research Foundation, priority 2008, dated 2013).

Columns and labels:
[1] = tested on: primary striatal neurons co-cultured with activated astrocytes; assay: Astrocyte-neuron co-culture: apoptosis of primary striatal neurons (caspase activity, Annexin V binding); assay type: cell-based, mouse; conditions: astrocytes co-treated with 25 nM for 8 hours, six hours of co-culture; FIG. 6 C-D
Description: Astrocyte Neuron Co-Culture. Cells were isolated as described above and astrocytes grown to confluence on permeable cell culture inserts (BD Biosciences, San Jose, Calif.) prior to treatment. Astrocytes were then treated with MPTP (10 μM), TNF-α (10 pg/ml) and IFN-γ (1 ng/ml) in the presence or absence of DIM-C-pPhtBu (10 μM), Rosiglitazone (10 μM) AMT (25 nM), or DMSO vehicle control for 8 hours. Media was then removed, and the astrocytes washed three times with sterile PBS to prevent carryover of treatment medium to the neurons, and the inserts were placed directly in each well over cultured neurons. Astrocyte-containing inserts were removed following six hours of co-culture, and neuronal caspase activity and phosphatidylserine translocation were measured by widefield fluorescence microscopy using the general cell permeable fluorescent caspase substrate rhodamine 110, bis-(L-aspartic acid amide) and an Annexin V Alexa Fluor 680 conjugate, respectively. Images were acquired using a Zeiss 20× air PlanApochromat objective and at least 10 microscopic fields were examined per treatment group over three independent experiments.
The efficacy of DIM-C-pPhtBu in preventing astrocyte-dependent neuronal apoptosis was examined in FIG. 6. Astrocytes were grown to confluence in cell culture inserts that are permeable to small molecules but prevent direct cell-cell contact. Following treatment of astrocytes with MPTP and TNF-α/IFN-γ in the presence or absence of DIM-C-pPhtBu (10 μM), rosiglitazone (10 μM), the NOS2 inhibitor AMT (25 nM), or DMSO, astrocytes were washed with PBS and co-incubated directly above primary striatal neurons in neurobasal medium. Indices of neuronal apoptosis were then measured using live-cell fluorescence imaging of caspase activity (FIG. 6A) and Annexin V binding (FIG. 6B). […] The DMSO vehicle control had no suppressive effect.
Differing letters denote statistical significance (p<0.05).

[2] = tested on: 3-nitrotyrosine protein nitration in astrocytes; assay: Immunofluorescence of 3-nitrotyrosine adducts (protein nitration) in primary astrocytes treated with MPTP and cytokines; assay type: cell-based, mouse
Description: Immunofluorescence. Primary astrocytes were grown to confluence on 20 mm serum-coated glass coverslips and treated with saline or MPTP (10 μM), TNF-α (10 pg/ml), and IFN-γ (1 ng/ml) with or without DIM-C-pPhtBu (10 μM), rosiglitazone (10 μM), the NOS2 inhibitor AMT (25 nM) or NOS 1 inhibitor 7-NI (10 μM), or a DMSO vehicle control 8 hours prior to analysis. Immunofluorescence to confirm culture purity was conducted on cells grown to confluence on the 20 mm glass coverslips. Blocking and antibody hybridization was conducted in 1% BSA (w/v) in PBS, and all washes were conducted in PBS. Images were acquired using a Zeiss 20× air PlanApochromat objective and 6-8 microscopic fields were examined per treatment group over no less than three independent experiments. Fluorescent secondary antibodies were used to detect GFAP (488 nmcx/519 nmcm) and Iba1 or nitrosylated protein (647 nmcx/668 nmcm), respectively, while mounting medium containing DAPI (360 nmcx/460 nmcm) was used to identify cell nuclei.
The effect of NOS2 induction by MPTP and inflammatory cytokines on global protein nitration following NO/peroxynitrite (ONOO—) formation in astrocytes was examined by immunofluorescence (FIG. 3). Immunofluorescence using antibodies against GFAP (FITC) and 3-nitrotyrosine adducts (Cy5) was employed to measure the extent of protein nitration within astrocytes treated with MPTP and cytokines, with or without inclusion of DIM-C-pPhtBu (10 μM), rosiglitazone (10 μM), the high-affinity NOS2 inhibitor AMT (25 nM), the NOSI inhibitor 7-NI (10 μM) or a DMSO vehicle control. […] Co-treatment of astroytes with DIM-C-pPhtBu prevented MPTP-induced increases in nitration, resulting in similar levels of 3-nitrotyrosine adducts as saline-treated control cells (FIG. 3C). Mean intracellular fluorescence for 3-nitrotyrosine was quantified and compared between each treatment group (FIG. 3D).

CC1CCN=C(N)S1 (stereo not drawn) [AMT, 2-amino-5,6-dihydro-6-methyl-4H-1,3-thiazine]
Apoptosis in co-cultured striatal neurons (caspase activity and Annexin V-binding) [1]: prevented
MPTP-induced increase in 3-nitrotyrosine formation ([2]; 25 nM co-treatment, astrocytes, FIG. 3D): prevented
Protein nitration in primary astrocytes induced by MPTP and TNF-α/IFN-γ ([2]; FIG. 7(D), concentration not given): prevents protein nitration
